Experimental data taken from PubChem BioAssay (NCI).
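In this assay, cells in 96-well plates receive the compound at five concentrations for 48 hours. Endpoints are linearly interpolated between the surrounding concentrations. TGI is the concentration that stops growth completely.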

Tests used:
Assay in all cases: growth of human tumour cells (NCI), 48 h
MDA-MB-435 = system: MDA-MB-435
U251 CNS = system: U251 CNS
OVCAR-8 ovarian = system: OVCAR-8 ovarian
KM12 colon = system: KM12 colon
CCRF-CEM leukemia = system: CCRF-CEM leukemia
HCT-15 colon = system: HCT-15 colon
OVCAR-4 ovarian = system: OVCAR-4 ovarian
RXF 393 renal = system: RXF 393 renal
BT-549 breast = system: BT-549 breast
HOP-62 NSCLC = system: HOP-62 NSCLC
NCI/ADR-RES ovarian = system: NCI/ADR-RES ovarian
M14 melanoma = system: M14 melanoma
EKVX NSCLC = system: EKVX NSCLC
SK-MEL-28 melanoma = system: SK-MEL-28 melanoma
MALME-3M melanoma = system: MALME-3M melanoma
HL-60(TB) leukemia = system: HL-60(TB) leukemia
HT29 colon = system: HT29 colon
MDA-N = system: MDA-N

Row | SMILES | TGI (MDA-MB-435) [µM] | TGI (U251 CNS) [µM] | TGI (OVCAR-8 ovarian) [µM] | TGI (KM12 colon) [µM] | TGI (CCRF-CEM leukemia) [µM] | TGI (HCT-15 colon) [µM] | TGI (OVCAR-4 ovarian) [µM] | TGI (RXF 393 renal) [µM] | TGI (BT-549 breast) [µM] | TGI (HOP-62 NSCLC) [µM] | TGI (NCI/ADR-RES ovarian) [µM] | TGI (M14 melanoma) [µM] | TGI (EKVX NSCLC) [µM] | TGI (SK-MEL-28 melanoma) [µM] | TGI (MALME-3M melanoma) [µM] | TGI (HL-60(TB) leukemia) [µM] | TGI (HT29 colon) [µM] | TGI (MDA-N) [µM]
1 | O=C(O)c1ccccc1/C=N/NC1=NCCCCN1 | > 100 | > 100 | > 100 | > 100 | > 100 | > 100 | > 100 | > 100 | > 100 | > 100 | > 100 | > 100 | > 100 | > 100 | > 100 | > 100 | > 100 | > 100
2 | C=CCNC1=C2C[C@@H](C)C[C@@H](OC)[C@H](OC(=O)CN)[C@H](C)/C=C(\C)[C@@H](OC(N)=O)[C@H](OC)/C=C\C=C(/C)C(=O)NC(=CC1=O)C2=O | 14.3 | 29.1 | 18.3 | 9.87 | > 29.8 | 22.5 | 29.2 | 17 | 28.3 | 19.9 | > 100 | 22.3 | 21.7 | 29.7 | 21.8 | 8.53 | 17.6 | 13
3 | C[C@]12[C@@H]3CC[C@H]1[C@@H](OC(=O)Nc1cc([N+](=O)[O-])cc([N+](=O)[O-])c1)C(=O)N2CC3 | > 100 | > 100 | > 100 | > 100 | > 100 | > 100 | > 100 | > 100 | > 100 | > 100 | > 100 | > 100 | > 100 | > 100 | > 100 | > 100 | > 100 | > 100
4 | O=C=NCCCCCCN1C(=O)N2C(c3ccccc3)N(CCCCCCN=C=O)C(=O)N2C1c1ccccc1 (stereo unspecified) | > 100 | > 100 | > 100 | > 100 | > 100 | > 100 | > 100 | > 100 | > 100 | > 100 | > 100 | > 100 | > 100 | > 100 | > 100 | > 100 | > 100 | > 100
5 | N=C(N)SCc1cccc2c(=O)cc(-c3ccccc3)oc12 | 21.5 | 27.3 | 29.8 | 27.3 | 18.6 | > 65.7 | 31.2 | 19.5 | 28.2 | 44.8 | > 100 | 27.5 | 37.9 | 6.37 | 27.2 | 13.1 | 24.8 | 21.3
6 | COc1cc2c(cc1O)[C@@H]1Cc3c(cc(OC)c(OC)c3Oc3cc4c(cc3OC)CCN(C)[C@@H]4Cc3ccc(O)cc3)[C@H](C2)N1C | 40.8 | > 100 | > 100 | > 100 | > 72.1 | > 100 | > 100 | 37.4 | 96.9 | > 100 | > 100 | 33.9 | > 100 | 34.9 | 32.2 | 36.6 | > 100 | 38.3
7 | Clc1nc2n(c1/C=C/c1cccs1)CCS2 | > 100 | > 100 | > 100 | > 100 | 46.6 | > 100 | > 100 | > 100 | 90.4 | > 100 | > 100 | > 100 | > 100 | > 100 | > 100 | > 100 | 96.6 | > 100
8 | Cc1cc(NS(=O)(=O)c2ccc(Nc3c4ccccc4nc4ccc(C(=O)Nc5ccc(S(N)(=O)=O)cc5)cc34)cc2)no1 | > 100 | > 100 | > 100 | > 100 | > 100 | > 100 | > 100 | > 100 | > 100 | > 100 | > 100 | > 100 | > 100 | > 100 | > 100 | > 100 | > 100 | > 100
9 | OC1CN2Cc3cc4c(cc3[C@]13C=C[C@@H](O)CC23)OCO4 (stereo partly specified) | > 100 | > 100 | > 100 | > 100 | 48.5 | > 100 | > 100 | 58.6 | > 100 | > 100 | > 100 | > 100 | 94.5 | > 100 | > 100 | 75.3 | > 100 | > 100
10 | O=C(c1ccc(Br)cc1)n1c2ccc(Br)cc2c2nc3ccccc3nc21 | > 100 | > 100 | > 100 | > 100 | > 100 | > 100 | > 100 | > 100 | > 100 | > 100 | > 100 | > 100 | > 100 | > 100 | > 100 | > 100 | > 100 | > 100
11 | Cc1ccc(S(=O)(=O)NC(=O)Nc2ccc(S(N)(=O)=O)cc2S(N)(=O)=O)cc1 | > 100 | > 100 | > 100 | > 100 | > 100 | > 100 | > 100 | > 100 | > 100 | > 100 | > 100 | > 100 | > 100 | > 100 | > 100 | > 100 | > 100 | > 100
12 | C=CC(C)CCC(C/C=C(\C)CCC=C(C)C)C(=C)CCCC(C)C (stereo unspecified) | > 100 | > 100 | > 100 | > 100 | > 100 | > 100 | > 100 | > 100 | > 100 | > 100 | > 100 | > 100 | > 100 | > 100 | > 100 | > 100 | > 100 | > 100
